Data: patent US20240390471A1, “COMPOUNDS AND ADJUVANT FORMULATIONS USEFUL IN PNEUMOCOCCAL VACCINES” (Merck Sharp & Dohme LLC, priority 2023, published 2024)

Tests used:
human TLR8 = target: T1, human TLR8 (Homo sapiens, UniProt Q9NR97); assay: Cell-based TLR 7/8 assay, HEK-Blue TLR8 cells (SEAP reporter); conditions: based on Compound concentration only; Compounds formulated as SNEs; read-out: huTLR8 EC50 (converted)
T1 construct: host or cells: HEK-Blue 293 cells expressing human TLR8
T1 sequence (Q9NR97 27-1041): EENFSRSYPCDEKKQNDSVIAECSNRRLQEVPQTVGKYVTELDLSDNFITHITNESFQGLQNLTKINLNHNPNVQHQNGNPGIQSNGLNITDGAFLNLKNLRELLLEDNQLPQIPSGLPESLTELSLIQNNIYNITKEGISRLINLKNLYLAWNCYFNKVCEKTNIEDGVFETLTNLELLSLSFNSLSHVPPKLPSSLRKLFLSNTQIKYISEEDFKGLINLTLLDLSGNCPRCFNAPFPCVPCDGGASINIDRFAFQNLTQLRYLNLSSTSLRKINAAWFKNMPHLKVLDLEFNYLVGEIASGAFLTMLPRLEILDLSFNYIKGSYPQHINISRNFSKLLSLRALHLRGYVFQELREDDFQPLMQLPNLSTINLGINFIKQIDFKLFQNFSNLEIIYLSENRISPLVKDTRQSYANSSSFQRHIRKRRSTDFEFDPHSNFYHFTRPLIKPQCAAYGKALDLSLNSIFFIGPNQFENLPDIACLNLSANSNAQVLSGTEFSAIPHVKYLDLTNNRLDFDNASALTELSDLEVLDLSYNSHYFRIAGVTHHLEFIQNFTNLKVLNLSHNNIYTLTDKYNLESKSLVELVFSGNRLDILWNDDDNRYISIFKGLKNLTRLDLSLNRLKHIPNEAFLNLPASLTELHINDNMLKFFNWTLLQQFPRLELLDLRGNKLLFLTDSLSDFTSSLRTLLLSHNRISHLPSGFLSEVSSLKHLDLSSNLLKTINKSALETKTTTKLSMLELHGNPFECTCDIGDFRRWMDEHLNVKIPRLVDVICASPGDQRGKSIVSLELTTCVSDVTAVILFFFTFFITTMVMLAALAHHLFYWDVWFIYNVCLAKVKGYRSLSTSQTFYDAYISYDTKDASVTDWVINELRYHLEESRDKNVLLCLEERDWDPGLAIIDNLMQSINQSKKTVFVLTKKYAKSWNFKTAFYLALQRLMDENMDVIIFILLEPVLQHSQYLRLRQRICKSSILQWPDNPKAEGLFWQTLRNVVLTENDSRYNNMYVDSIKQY
Method: (§1) HEK-Blue™ TLR7 and TLR8 cells (InvivoGen) were designed to assess the stimulation of TLR7 and TLR8 by monitoring the activation of NF-κB and AP-1. Compound B-1-SNE samples were diluted 1:2 across an 8-point titration in diluent buffer histidine/PS-20 in a sterile V-bottom plate. 20 μL of samples were transferred to corresponding wells of two flat bottom assay plates. Media was aspirated from HEK-Blue™ human TLR 7 and TLR 8 cells (T-75 flasks) and gently rinsed with pre-warmed (37° C.) DPBS for a total volume of 5 mL/flask. The DPBS was gently removed from the cells and cells were gently manually dislodged and resuspended in 2 mL of DPBS. Cell assay suspensions were then prepared at approximately 2.2×10^5 cells per mL of HEK-Blue™ detection medium (InvivoGen). 180 μL of cell suspension in detection medium was added to each well of the two flat bottom assay plates containing the diluted Compound B-1-SNE samples for a final dilution of sample equaling 1:10 (180 μL of cell suspension in detection medium and 20 μL of sample). The cells were then incubated at 37° C. in 5% CO2 for 20 hrs. The reporter gene, NF-Kb, induces the production of secreted embryonic alkaline phosphatase (SEAP) when stimulated and can be monitored using the vendor supplied SEAP detection kit. SEAP colorimetric changes were read at an absorbance of 640 nm using a SpectroMax Stakmax plate reader. […] EC50 values were calculated based on total Compound B-1-SNE concentration using GraphPad Prism Software and analyzed using agonist vs. response variable slope (four parameters) least squares fit.
(§2) Further to the description in Example 10, a cell-based activation system was used to assess activity of the Compound-formulated nanoemulsion systems, prepared as described in examples, supra. HEK-Blue™ TLR7 and TLR8 cells (InvivoGen) were designed to assess the stimulation of TLR7 and TLR8 by monitoring the activation of NF-κB and AP-1. Compound-SNE samples were diluted 1:2 across an 8-point titration in diluent buffer histidine/PS-20 in a sterile V-bottom plate. 20 μL of samples were transferred to corresponding wells of two flat bottom assay plates. Media was aspirated from HEK-Blue™ human TLR 7 and TLR 8 cells (T-75 flasks) and gently rinsed with pre-warmed (37° C.) DPBS for a total volume of 5 mL/flask. The DPBS was gently removed from the cells and cells were gently manually dislodged and resuspended in 2 mL of DPBS. Cell assay suspensions were then prepared at approximately 2.2×10^5 cells per mL of HEK-Blue™ detection medium (InvivoGen). 180 μL of cell suspension in detection medium was added to each well of the two flat bottom assay plates containing the diluted Compound-SNE samples for a final dilution of sample equaling 1:10 (180 μL of cell suspension in detection medium and 20 μL of sample). The cells were then incubated at 37° C. in 5% CO2 for 20 hrs. The reporter gene, NF-Kb, induces the production of secreted embryonic alkaline phosphatase (SLAP) when stimulated and can be monitored using the vendor supplied SLAP detection kit. SLAP colorimetric changes were read at an absorbance of 640 nm using a SpectroMax Stakmax plate reader. EC50s were calculated based on Compound concentration only, not total Compound-SNE concentration (Table 6) using GraphPad Prism Software and analyzed using agonist vs. response variable slope (four parameters) least squares fit.

human TLR7 = target: T2, human TLR7 (Homo sapiens, UniProt Q9NYK1); assay: Cell-based TLR 7/8 assay, HEK-Blue TLR7 cells (SEAP reporter); conditions: based on Compound concentration only; Compounds formulated as SNEs; read-out: huTLR7 EC50 (converted)
T2 construct: host or cells: HEK-Blue 293 cells expressing human TLR7
T2 sequence (Q9NYK1 27-1049): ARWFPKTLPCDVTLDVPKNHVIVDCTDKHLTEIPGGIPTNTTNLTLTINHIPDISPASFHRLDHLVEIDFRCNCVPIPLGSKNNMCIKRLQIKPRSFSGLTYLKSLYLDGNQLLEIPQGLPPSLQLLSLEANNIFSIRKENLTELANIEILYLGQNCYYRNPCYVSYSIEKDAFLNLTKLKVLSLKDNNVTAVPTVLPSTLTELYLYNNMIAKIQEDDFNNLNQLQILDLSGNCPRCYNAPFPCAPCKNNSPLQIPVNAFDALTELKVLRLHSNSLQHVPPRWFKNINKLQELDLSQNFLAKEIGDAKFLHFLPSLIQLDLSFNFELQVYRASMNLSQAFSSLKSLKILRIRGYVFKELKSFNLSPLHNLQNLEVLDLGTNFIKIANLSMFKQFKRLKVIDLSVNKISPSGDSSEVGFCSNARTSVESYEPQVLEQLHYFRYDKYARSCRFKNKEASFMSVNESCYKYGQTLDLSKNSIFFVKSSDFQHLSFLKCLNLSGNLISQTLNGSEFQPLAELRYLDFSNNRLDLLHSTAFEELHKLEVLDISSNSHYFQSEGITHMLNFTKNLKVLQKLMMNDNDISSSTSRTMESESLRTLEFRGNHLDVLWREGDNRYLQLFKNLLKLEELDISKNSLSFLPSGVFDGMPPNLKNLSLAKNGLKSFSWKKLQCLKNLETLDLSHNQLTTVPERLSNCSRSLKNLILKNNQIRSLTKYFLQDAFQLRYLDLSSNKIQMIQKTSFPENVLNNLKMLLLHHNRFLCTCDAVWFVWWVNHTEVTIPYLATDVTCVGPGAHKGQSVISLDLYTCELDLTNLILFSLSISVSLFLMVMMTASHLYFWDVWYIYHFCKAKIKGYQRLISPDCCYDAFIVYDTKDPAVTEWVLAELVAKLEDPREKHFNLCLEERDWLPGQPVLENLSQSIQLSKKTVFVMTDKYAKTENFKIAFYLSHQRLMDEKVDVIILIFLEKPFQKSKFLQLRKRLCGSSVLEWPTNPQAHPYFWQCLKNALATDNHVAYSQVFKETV
Method: as §1, §2

Structure (SMILES) | EC50 (human TLR8) | EC50 (human TLR7)
CCCCCCCCCCCCCCCCCC(=O)NCCC(=O)N1CCN(c2ccc(Cn3cc4nc(N)nc(NCCCC)c4n3)c(OC)c2)CC1 [Compound B-11, N-(3-(4-(4-((5-amino-7-(butylamino)-2H-pyrazolo[4,3-d]pyrimidin-2-yl)methyl)-3-methoxyphenyl)piperazin-1-yl)-3-oxopropyl)stearamide] | 401 nM | 3070 nM
CCCCCCCCCCCCCCCCCC(=O)NCCCCCCC(=O)N1CCN(c2ccc(Cn3cc4nc(N)nc(NCCCC)c4n3)c(OC)c2)CC1 [Compound B-12, N-(7-(4-(4-((5-amino-7-(butylamino)-2H-pyrazolo[4,3-d]pyrimidin-2-yl)methyl)-3-methoxyphenyl)piperazin-1-yl)-7-oxoheptyl)stearamide] | 25500 nM | 23400 nM
CCCCCCCCCCCCCCCCCC(=O)NC1CC(CC(=O)N2CCN(c3ccc(Cn4cc5nc(N)nc(NCCCC)c5n4)c(OC)c3)CC2)C1 (stereo not shown) [Compound B-13, N-(3-(2-(4-(4-((5-amino-7-(butylamino)-2H-pyrazolo[4,3-d]pyrimidin-2-yl)methyl)-3-methoxyphenyl)piperazin-1-yl)-2-oxoethyl)cyclobutyl)stearamide] | 3020 nM | 85900 nM
CCCCCCCCCCCCCCCCCC(=O)NCCCC(C)(C)C(=O)N1CCN(c2ccc(Cn3cc4nc(N)nc(NCCCC)c4n3)c(OC)c2)CC1 [Compound B-14, N-(5-(4-(4-((5-amino-7-(butylamino)-2H-pyrazolo[4,3-d]pyrimidin-2-yl)methyl)-3-methoxyphenyl)piperazin-1-yl)-4,4-dimethyl-5-oxopentyl)stearamide] | 11900 nM | 135000 nM
CCCCCCCCCCCCCCCCCC(=O)NCCCCC(=O)N1CCN(c2ccc(Cn3nc4c(NCCCC)nc(N)nc4c3C)c(OC)c2)CC1 [Compound B-18, N-(5-(4-(4-((5-amino-7-(butylamino)-3-methyl-2H-pyrazolo[4,3-d]pyrimidin-2-yl)methyl)-3-methoxyphenyl)piperazin-1-yl)-5-oxopentyl)stearamide] | 215 nM | 316 nM
CCCCC/C=C\C/C=C\CCCCCCCC(=O)NCCCCN(C)Cc1cc(OC)c(Cn2cc3nc(N)nc(NCCCC)c3n2)c(OC)c1 [Compound C-1, (9Z,12Z)—N-(4-((4-((5-amino-7-(butylamino)-2H-pyrazolo[4,3-d]pyrimidin-2-yl)methyl)-3,5-dimethoxybenzyl)(methyl)amino)butyl)octadeca-9,12-dienamide] | 95.5 nM | 259 nM
CCCCCCCCCCCCCC(=O)NCCCCN(C)Cc1cc(OC)c(Cn2cc3nc(N)nc(NCCCC)c3n2)c(OC)c1 [Compound C-2, N-(4-((4-((5-amino-7-(butylamino)-2H-pyrazolo[4,3-d]pyrimidin-2-yl)methyl)-3,5-dimethoxybenzyl)(methyl)amino)butyl)tetradecanamide] | 176 nM | 338 nM
CCCCCCCC/C=C\CCCCCCCC(=O)NCCCCN(C)Cc1cc(OC)c(Cn2cc3nc(N)nc(NCCCC)c3n2)c(OC)c1 [Compound C-3, N-(4-((4-((5-amino-7-(butylamino)-2H-pyrazolo[4,3-d]pyrimidin-2-yl)methyl)-3,5-dimethoxybenzyl)(methyl)amino)butyl)oleamide] | 163 nM | 503 nM
CCCCCCCCCCCCCCCCCC(=O)NCCCCN(C)Cc1cc(OC)c(Cn2cc3nc(N)nc(NCCCC)c3n2)c(OC)c1 [Compound C-4, N-(4-((4-((5-amino-7-(butylamino)-2H-pyrazolo[4,3-d]pyrimidin-2-yl)methyl)-3,5-dimethoxybenzyl)(methyl)amino)butyl)stearamide] | 1170 nM | 4950 nM
CCCCCCCCCCCCCCCCCC(=O)NCCCC(=O)N(C)Cc1cc(OC)c(Cn2cc3nc(N)nc(NCCCC)c3n2)c(OC)c1 [Compound C-5, N-(4-((4-((5-amino-7-(butylamino)-2H-pyrazolo[4,3-d]pyrimidin-2-yl)methyl)-3,5-dimethoxybenzyl)(methyl)amino)-4-oxobutyl)stearamide] | 93.2 nM | 639 nM
CCCCC/C=C\C/C=C\CCCCCCCCC(CCCCCCCC/C=C\C/C=C\CCCCC)OC(=O)NCCCCN(C)Cc1cc(OC)c(Cn2cc3nc(N)nc(NCCCC)c3n2)c(OC)c1 [Compound D-1, (6Z,9Z,28Z,31Z)-heptatriaconta-6,9,28,31-tetraen-19-yl (4-((4-((5-amino-7-(butylamino)-2H-pyrazolo[4,3-d]pyrimidin-2-yl)methyl)-3,5-dimethoxybenzyl)(methyl)amino)butyl)carbamate] | 155000 nM | 17200 nM
